The assay concerns the target SARS-CoV-2 3CL protease (Severe acute respiratory syndrome coronavirus 2, UniProt P0DTD1). Kind of assay: FRET enzyme activity inhibition assay of SARS-CoV-2 3CLpro. The assay is classed as biochemical.

In the case of `COc1ccc(C=C[N+](=O)[O-])cc1OC` [compound f, 3,4-dimethoxyl-β-nitrostyrene], half-maximal inhibition (IC50) required 5.07 µM.

(Values after article PMC10033154 (Journal of Molecular Structure, 2023).)
